Data: US20060069132A1, “Azolecarboxamide herbicides” (priority 2004, published 2006)
Like-named read-outs stand apart in the source and are kept apart here.

Experiments:
redroot pigweed = assay: Test A pre-/postemergence herbicide test; assay type: in vivo, Amaranthus retroflexus; conditions: for pest or weed control at 500 g/ha / pest or weed control at 2000 g/ha: Amaranthus retroflexus, 240 h
How it was run: (§1)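 Both application timings were run together: directed soil spray over freshly planted seeds in sandy loam, and runoff spray onto 2–10 cm seedlings. Evaluation after ~10 days in greenhouse used a 0–100 visual scale versus untreated controls.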

johnsongrass = assay: Test C pre-/postemergence herbicide test; assay type: in vivo, Sorghum halepense; conditions: for Plant response rating (0 = no effect, 100 = complete control), Johnsongrass: 62 g ai/ha; for Johnsongrass plant response rating: Preemergence, 500 g ai/ha, scale 0 to 100, 0 no effect, 100 complete control
How it was run: (§2)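 Emerged plants at the 1- to 4-leaf stage (2–18 cm), or freshly planted seeds, received test chemicals in a non-phytotoxic solvent mixture with surfactant. Response was visually scored against controls after 12 to 14 days in the greenhouse, on a 0 (no effect) to 100 (complete control) scale.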

kochia = assay: Test C pre-/postemergence herbicide test; assay type: in vivo, Kochia scoparia; conditions: for Plant response rating (0 = no effect, 100 = complete control), Kochia: 62 g ai/ha; for Kochia plant response rating: Preemergence, 500 g ai/ha, scale 0 to 100, 0 no effect, 100 complete control
How it was run: as §2

large crabgrass = assay: Test A pre-/postemergence herbicide test; assay type: in vivo, Digitaria sanguinalis; conditions: for pest or weed control at 500 g/ha / pest or weed control at 2000 g/ha: Digitaria sanguinalis, 240 h
How it was run: as §1

giant foxtail [1] = assay: Test A pre-/postemergence herbicide test; assay type: in vivo, Setaria faberi; conditions: for pest or weed control at 500 g/ha / pest or weed control at 2000 g/ha: Setaria faberi, 240 h
How it was run: as §1

yellow nutsedge = assay: Test C pre-/postemergence herbicide test; assay type: in vivo, Cyperus esculentus; conditions: for Plant response rating (0 = no effect, 100 = complete control), Nutsedge, Yellow: 62 g ai/ha; for Nutsedge, Yellow plant response rating: Preemergence, 500 g ai/ha, scale 0 to 100, 0 no effect, 100 complete control
How it was run: as §2

rice = assay: Test C flooded paddy test; assay type: in vivo, Oryza sativa
How it was run: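 Injury scored visually against controls on a 0 (no effect) to 100 (complete control) scale, 12 to 14 days after treatment in greenhouse. Flooded paddy plants treated at 2-leaf stage; postemergence plants at 1- to 4-leaf stage, 2 to 18 cm tall.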

Surinam grass = assay: Test C pre-/postemergence herbicide test; assay type: in vivo, Urochloa decumbens; conditions: for Plant response rating (0 = no effect, 100 = complete control), Surinam Grass: 62 g ai/ha; for Surinam Grass plant response rating: Preemergence, 500 g ai/ha, scale 0 to 100, 0 no effect, 100 complete control
How it was run: as §2

giant foxtail [2] = assay: Test C pre-/postemergence herbicide test; assay type: in vivo, Setaria faberi; conditions: for Plant response rating (0 = no effect, 100 = complete control), Foxtail, Giant: 62 g ai/ha; for Plant response rating (0 = no effect, 100 = complete control), Foxtail, Giant / Plant response rating, Foxtail, Giant: preemergence; for Foxtail, Giant plant response rating: Preemergence, 500 g ai/ha, scale 0 to 100, 0 no effect, 100 complete control
How it was run: as §2

[3] = Postemergence, 500 g ai/ha, 0 to 100 scale, 0 no effect, 100 complete control
[4] = Postemergence, 2000 g ai/ha, 0 to 100 scale, 0 no effect, 100 complete control
[5] = Preemergence, 500 g ai/ha, visual rating, 0 to 100 scale (0 no effect, 100 complete control)
[6] = Preemergence, 2000 g ai/ha, 0 to 100 scale, 0 no effect, 100 complete control
[7] = 125 g ai/ha, scale 0 (no effect) to 100 (complete control), visual, 12 to 14 days, preemergence

CCn1nc(C(C)(C)C)cc1C(=O)Nc1cccc2c1CN(C)C2=O [Compound 55, N-(2,3-dihydro-2-methyl-1-oxo-1H-isoindol-4-yl)-3-(1,1-dimethylethyl)-1-ethyl-1H-pyrazole-5-carboxamide]
pest or weed control at 500 g/ha (redroot pigweed; post-emergence, Postemergence, 500 g ai/ha, 0 to 100 scale, 0 no effect, 100 complete control, read-out: Plant response rating, Pigweed): 90%
pest or weed control at 2000 g/ha (redroot pigweed; post-emergence, Postemergence, 2000 g ai/ha, 0 to 100 scale, 0 no effect, 100 complete control, read-out: Plant response rating, Pigweed): 100%
pest or weed control at 500 g/ha (redroot pigweed; pre-emergence, Preemergence, 500 g ai/ha, visual rating, 0 to 100 scale (0 no effect, 100 complete control), read-out: Pigweed plant response rating): 100%
pest or weed control at 2000 g/ha (redroot pigweed; pre-emergence, Preemergence, 2000 g ai/ha, 0 to 100 scale, 0 no effect, 100 complete control, read-out: Pigweed plant response rating): 100%
Plant response rating (0 = no effect, 100 = complete control), Johnsongrass (johnsongrass; preemergence): 0
Johnsongrass plant response rating (johnsongrass): 100
pest or weed control at 125 g/ha (johnsongrass; Sorghum halepense, pre-emergence, 125 g ai/ha, scale 0 (no effect) to 100 (complete control), visual, 12 to 14 days, read-out: Plant response rating, Johnsongrass): 75%
pest or weed control at 250 g/ha (johnsongrass; Sorghum halepense, pre-emergence, 250 g ai/ha, scale 0 to 100 (0 no effect, 100 complete control), visual, 12 to 14 days, read-out: Plant response rating, Johnsongrass): 95%
Plant response rating (0 = no effect, 100 = complete control), Kochia (kochia; preemergence): 25
pest or weed control at 125 g/ha (kochia; Bassia scoparia, pre-emergence, 125 g ai/ha, scale 0 (no effect) to 100 (complete control), visual, 12 to 14 days, read-out: Plant response rating, Kochia): 80%
pest or weed control at 250 g/ha (kochia; Bassia scoparia, pre-emergence, 250 g ai/ha, scale 0 to 100 (0 no effect, 100 complete control), visual, 12 to 14 days, read-out: Plant response rating, Kochia): 100%
Kochia plant response rating (kochia): 100
pest or weed control at 500 g/ha (large crabgrass; post-emergence, Postemergence, 500 g ai/ha, 0 to 100 scale, 0 no effect, 100 complete control, read-out: Plant response rating, Crabgrass, Large): 25%
pest or weed control at 2000 g/ha (large crabgrass; post-emergence, Postemergence, 2000 g ai/ha, 0 to 100 scale, 0 no effect, 100 complete control, read-out: Plant response rating, Crabgrass, Large): 100%
pest or weed control at 500 g/ha (large crabgrass; pre-emergence, Preemergence, 500 g ai/ha, visual rating, 0 to 100 scale (0 no effect, 100 complete control), read-out: Crabgrass, Large plant response rating): 75%
pest or weed control at 2000 g/ha (large crabgrass; pre-emergence, Preemergence, 2000 g ai/ha, 0 to 100 scale, 0 no effect, 100 complete control, read-out: Crabgrass, Large plant response rating): 100%
pest or weed control at 500 g/ha (giant foxtail [1]; post-emergence, Postemergence, 500 g ai/ha, 0 to 100 scale, 0 no effect, 100 complete control, read-out: Plant response rating, Foxtail, Giant): 30%
pest or weed control at 2000 g/ha (giant foxtail [1]; post-emergence, Postemergence, 2000 g ai/ha, 0 to 100 scale, 0 no effect, 100 complete control, read-out: Plant response rating, Foxtail, Giant): 80%
pest or weed control at 500 g/ha (giant foxtail [1]; pre-emergence, Preemergence, 500 g ai/ha, visual rating, 0 to 100 scale (0 no effect, 100 complete control), read-out: Foxtail, Giant plant response rating): 60%
pest or weed control at 2000 g/ha (giant foxtail [1]; pre-emergence, Preemergence, 2000 g ai/ha, 0 to 100 scale, 0 no effect, 100 complete control, read-out: Foxtail, Giant plant response rating): 100%
Plant response rating (0 = no effect, 100 = complete control), Nutsedge, Yellow (yellow nutsedge; preemergence): 0
pest or weed control at 125 g/ha (yellow nutsedge; Cyperus, pre-emergence, 125 g ai/ha, scale 0 (no effect) to 100 (complete control), visual, 12 to 14 days, read-out: Plant response rating, Nutsedge, Yellow): 0%
pest or weed control at 250 g/ha (yellow nutsedge; Cyperus, pre-emergence, 250 g ai/ha, scale 0 to 100 (0 no effect, 100 complete control), visual, 12 to 14 days, read-out: Plant response rating, Nutsedge, Yellow): 0%
Nutsedge, Yellow plant response rating (yellow nutsedge): 10
plant injury at 62 g/ha (rice; Oryza sativa, 62 g ai/ha, scale 0 to 100 (0 no effect, 100 complete control), read-out: Rice plant response rating): 0%
plant injury at 125 g/ha (rice; Oryza sativa, 125 g ai/ha, scale of 0 to 100, 0 is no effect, 100 is complete control, read-out: Rice plant response rating): 0%
plant injury at 250 g/ha (rice; Oryza sativa, 250 g ai/ha, scale of 0 to 100, 0 is no effect, 100 is complete control, read-out: Rice plant response rating): 15%
plant injury at 500 g/ha (rice; Oryza sativa, 500 g ai/ha, visual rating after 12 to 14 days, scale 0 to 100 (0 no effect, 100 complete control), read-out: Plant response rating, Rice): 60%
Plant response rating (0 = no effect, 100 = complete control), Surinam Grass (Surinam grass; preemergence): 0
Surinam Grass plant response rating (Surinam grass): 100
pest or weed control at 125 g/ha (Surinam grass; Urochloa decumbens, pre-emergence, 312 h, 125 g ai/ha, scale 0 (no effect) to 100 (complete control), visual, 12 to 14 days, read-out: Plant response rating, Surinam Grass): 25%
pest or weed control at 250 g/ha (Surinam grass; Urochloa decumbens, pre-emergence, 312 h, 250 g ai/ha, scale 0 to 100 (0 no effect, 100 complete control), visual, 12 to 14 days, read-out: Plant response rating, Surinam Grass): 65%
Plant response rating (0 = no effect, 100 = complete control), Foxtail, Giant (giant foxtail [2]): 0
Foxtail, Giant plant response rating (giant foxtail [2]): 100
pest or weed control at 125 g/ha (giant foxtail [2]; Setaria faberi, pre-emergence, 312 h, 125 g ai/ha, scale 0 (no effect) to 100 (complete control), visual, 12 to 14 days, read-out: Plant response rating, Foxtail, Giant): 50%
pest or weed control at 250 g/ha (giant foxtail [2]; Setaria faberi, pre-emergence, 312 h, 250 g ai/ha, scale 0 to 100 (0 no effect, 100 complete control), visual, 12 to 14 days, read-out: Plant response rating, Foxtail, Giant): 75%

CCn1nc(C(C)(C)C)cc1C(=O)Nc1cccc2c1CCN(C1CC1)C2=O [Compound 64]
Plant response rating, Pigweed (redroot pigweed; [3]): 65
Plant response rating, Pigweed (redroot pigweed; [4]): 95
Pigweed plant response rating (redroot pigweed; [5]): 100
Pigweed plant response rating (redroot pigweed; [6]): 100
Plant response rating (0 = no effect, 100 = complete control), Johnsongrass (johnsongrass; preemergence): 0
Plant response rating, Johnsongrass (johnsongrass; [7]): 20
Johnsongrass plant response rating (johnsongrass): 60
Plant response rating (0 = no effect, 100 = complete control), Kochia (kochia; preemergence): 0
Plant response rating, Kochia (kochia; [7]): 20
Kochia plant response rating (kochia): 60
Plant response rating, Crabgrass, Large (large crabgrass; [3]): 30
Plant response rating, Crabgrass, Large (large crabgrass; [4]): 60
Crabgrass, Large plant response rating (large crabgrass; [5]): 70
Crabgrass, Large plant response rating (large crabgrass; [6]): 100
Plant response rating, Foxtail, Giant (giant foxtail [1]; [3]): 30
Plant response rating, Foxtail, Giant (giant foxtail [1]; [4]): 55
Foxtail, Giant plant response rating (giant foxtail [1]; [5]): 40
Foxtail, Giant plant response rating (giant foxtail [1]; [6]): 90
Plant response rating (0 = no effect, 100 = complete control), Nutsedge, Yellow (yellow nutsedge; preemergence): 0
Plant response rating, Nutsedge, Yellow (yellow nutsedge; [7]): 0
Nutsedge, Yellow plant response rating (yellow nutsedge): 0
Rice plant response rating (rice; 62 g ai/ha, scale 0 to 100 (0 no effect, 100 complete control)): 0
Rice plant response rating (rice; 125 g ai/ha, scale of 0 to 100, 0 is no effect, 100 is complete control): 0
Rice plant response rating (rice; 250 g ai/ha, scale of 0 to 100, 0 is no effect, 100 is complete control): 0
Plant response rating, Rice (rice; 500 g ai/ha, visual rating after 12 to 14 days, scale 0 to 100 (0 no effect, 100 complete control)): 15
Plant response rating (0 = no effect, 100 = complete control), Surinam Grass (Surinam grass; preemergence): 0
Plant response rating, Surinam Grass (Surinam grass; [7]): 5
Surinam Grass plant response rating (Surinam grass): 50
Plant response rating (0 = no effect, 100 = complete control), Foxtail, Giant (giant foxtail [2]): 0
Plant response rating, Foxtail, Giant (giant foxtail [2]; 125 g ai/ha, scale 0 (no effect) to 100 (complete control), visual, 12 to 14 days): 0
Plant response rating, Foxtail, Giant (giant foxtail [2]; 250 g ai/ha, scale 0 to 100 (0 no effect, 100 complete control), visual, 12 to 14 days): 10
Foxtail, Giant plant response rating (giant foxtail [2]): 80
